What all share (type): cell-based
For assay [1], the system named is SH-SY5Y (human neuroblastoma) cells. Kind of assay: Cell viability, Cell Titer Glo 2.0 assay. The settings on record: read-out: Viability SHSY5Y.3 GI50. The method in brief:
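Viability was read by CellTiter-Glo 2.0 luminescence after a 72-hour compound exposure at 37° C. under 5% CO2. Cells were in IMDM plus 10% FBS containing 0.1% DMSO, and medium-only wells gave the blank.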
(In ATP-based viability assays light output follows the ATP content of the culture.)

In assay [2] the test system is HTT mRNA. The assay can be described thus: Splicing RT-qPCR assay (THP), Table 2A. The following applies: Table 2A (THP); for AC50: AJ mRNA increase, read-out: HTT AJ (increase in alternative junction mRNA, AC50); for IC50: CJ mRNA decrease, read-out: HTT CJ (decrease in canonical junction mRNA, IC50). On the technique in general: In qPCR the cycle at which signal appears reflects the starting amount.

The test system of assay [3] is MYB mRNA. The assay can be described thus: Gene panel canonical junction qPCR assay, decrease in CJ mRNA, Table 3. The following applies: decrease in canonical junction (CJ) mRNA, gene panel qPCR, Table 3. The method in brief: (§1)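 IC50 denotes the concentration giving 50% decrease in canonical-junction mRNA, fitted by 4-parameter logistic to percentage response derived from ΔΔCt versus housekeeping gene and DMSO control. Cells (A673 or K562) exposed 24 h to 11-point 3-fold serial dilutions from 10 uM top, DMSO ≤0.25%; junction-spanning primer/probe qPCR.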

The subject of assay [4] is HTT mRNA. The description is as above. The settings on record: decrease in canonical junction (CJ) mRNA, gene panel qPCR, Table 3. The method, boiled down: as §1
The test system of assay [5] is MYB mRNA. Kind of assay: Splicing RT-qPCR assay (THP), Table 2A. The following applies: Table 2A (THP); for AC50: AJ mRNA increase, read-out: MYB AJ (increase in alternative junction mRNA, AC50); for IC50: CJ mRNA decrease, read-out: MYB CJ (decrease in canonical junction mRNA, IC50).

On to `C=CCNC1CCN(c2ccc(C(=O)Nc3cn4cc(C)nc(C)c4c3OC)c3nn(C)cc23)CC1` [Compound 458, 4-[4-(allylamino)-1-piperidyl]-N-(8-methoxy-1,3-dimethyl-pyrrolo[1,2-a]pyrazin-7-yl)-2-methyl-indazole-7-carboxamide], for which the GI50 (in general, the concentration at which growth is held to half of that of the control) in assay [1] lay in the range of 1000 to 10000 nM. For the same compound, the AC50 in the assay with HTT mRNA [2] and with MYB mRNA [5] was 1000 to 10000 nM throughout. The IC50 with HTT mRNA [2], with MYB mRNA [3], in the assay with HTT mRNA [4] and in the assay with MYB mRNA [5] was 1000 to 10000 nM throughout.
In the case of `Cn1cc2cc(NC(=O)c3ccc(N4CCC(NC5CC5)CC4)c4cn(C)nc34)c(F)cc2n1` [Compound 459, 4-[4-(cyclopropylamino)-1-piperidyl]-N-(6-fluoro-2-methyl-indazol-5-yl)-2-methyl-indazole-7-carboxamide], in assay [1], the GI50 was in the range of 1000 to 10000 nM. The AC50 (as a rule, the concentration giving half of the maximal activity seen) with HTT mRNA [2] is more than 10000 nM; in the assay with MYB mRNA [5] it was 100 to 1000 nM. Besides, the IC50 – broadly, the concentration needed to halve the response being measured – in the assay on HTT mRNA [2] lay within 1000 to 10000 nM; in the assay on MYB mRNA [3] it was 100 to 1000 nM; in the assay on HTT mRNA [4], 1000 to 10000 nM; in the assay with MYB mRNA [5], 100 to 1000 nM.
In the case of `COc1nc2nn(C)cc2cc1NC(=O)c1ccc(N2CCC(NC3CC3)CC2)c2cn(C)nc12` [Compound 460, 4-[4-(cyclopropylamino)-1-piperidyl]-N-(6-methoxy-2-methyl-pyrazolo[3,4-b]-pyridin-5-yl)-2-methyl-indazole-7-carboxamide], the GI50 in assay [1] was in the range of 1000 to 10000 nM. The AC50 fell in the range of 1000 to 10000 nM in the assay with HTT mRNA [2] and 100 to 1000 nM in the assay on MYB mRNA [5]. Moreover, the IC50 in the assay with HTT mRNA [2] lay within 1000 to 10000 nM; in the assay on MYB mRNA [3], 100 to 1000 nM; in the assay with HTT mRNA [4], 1000 to 10000 nM; in the assay on MYB mRNA [5], 100 to 1000 nM.
Take `COc1c(NC(=O)c2ccc(N3CCC(NC4CC4)CC3)c3cn(C)nc23)cc2cn(C)nc2c1Cl` [Compound 461, N-(7-chloro-6-methoxy-2-methyl-indazol-5-yl)-4-[4-(cyclopropylamino)-1-piperidyl]-2-methyl-indazole-7-carboxamide]: the GI50 in assay [1] was 100 to 1000 nM. Further, the AC50 with HTT mRNA [2] and in the assay with MYB mRNA [5] was 100 to 1000 nM throughout. The half-maximal inhibitory concentration (IC50) with HTT mRNA [2], with MYB mRNA [3], in the assay on HTT mRNA [4] and in the assay on MYB mRNA [5] was 100 to 1000 nM throughout.
As to `Cc1cn2cc(NC(=O)c3ccc(N4CCC(NC5CC5)CC4)c4cn(C)nc34)nc2c(-c2cnoc2)n1` [Compound 462, 4-[4-(cyclopropylamino)-1-piperidyl]-N-(8-isoxazol-4-yl-6-methyl-imidazo[1,2-a]-pyrazin-2-yl)-2-methyl-indazole-7-carboxamide], the GI50 in assay [1] was 1000 to 10000 nM. Moreover, the AC50 in the assay on HTT mRNA [2] and with MYB mRNA [5] was more than 10000 nM each time. Further, the IC50 in the assay on HTT mRNA [2], in the assay with MYB mRNA [3], with HTT mRNA [4] and with MYB mRNA [5] was more than 10000 nM throughout.
For `COc1cc2nn(C)cc2cc1NC(=O)c1c(O)cc(N2CCC(NC3CC3)CC2)c2cn(C)nc12` [Compound 463, 4-[4-(cyclopropylamino)-1-piperidyl]-6-hydroxy-N-(6-methoxy-2-methyl-indazol-5-yl)-2-methyl-indazole-7-carboxamide], in assay [1], the GI50 is 100 to 1000 nM. The AC50 was 1000 to 10000 nM with HTT mRNA [2] and less than 100 nM in the assay with MYB mRNA [5]. Besides, the IC50 with HTT mRNA [2] was 1000 to 10000 nM; in the assay on MYB mRNA [3], less than 100 nM; in the assay on HTT mRNA [4], 1000 to 10000 nM; with MYB mRNA [5], less than 100 nM.
Take `CCNCC1CCN(c2cc(F)c(C(=O)Nc3cc4cn(C)nc4cc3OC)c3nn(C)cc23)C1` (stereo not shown) [Compound 464, 4-(3-[(ethylamino)methyl]pyrrolidin-1-yl)-6-fluoro-N-(6-methoxy-2-methylindazol-5-yl)-2-methylindazole-7-carboxamide]: the GI50 in assay [1] lay within 100 to 1000 nM. Moreover, the AC50 in the assay on HTT mRNA [2] and with MYB mRNA [5] was 100 to 1000 nM in each case. Besides, the IC50 in the assay with HTT mRNA [2], in the assay on MYB mRNA [3], with HTT mRNA [4] and in the assay with MYB mRNA [5] was 100 to 1000 nM throughout.
`Cc1cn2cc(NC(=O)c3c(F)cc(NCC4CCNCC4)c4cn(C)nc34)nc2c(C)n1` [Compound 465, N-(6,8-dimethylimidazo[1,2-a]pyrazin-2-yl)-6-fluoro-2-methyl-4-(4-piperidylmethylamino)indazole-7-carboxamide]: the GI50 in assay [1] was in the range of 100 to 1000 nM. The AC50 in the assay with HTT mRNA [2] and with MYB mRNA [5] was more than 10000 nM each time. Besides, the IC50 with HTT mRNA [2], in the assay on MYB mRNA [3], with HTT mRNA [4] and with MYB mRNA [5] was more than 10000 nM in each case.
In the case of `COc1cc2nn(C)cc2cc1NC(=O)c1c(C2CC2)cc(N2CCC(NC3CC3)CC2)c2cn(C)nc12` [Compound 466, 6-cyclopropyl-4-[4-(cyclopropylamino)-1-piperidyl]-N-(6-methoxy-2-methyl-indazol-5-yl)-2-methyl-indazole-7-carboxamide], in assay [1], the concentration for 50% growth inhibition (GI50) lay within 1000 to 10000 nM. For the same compound, the AC50 in the assay on HTT mRNA [2] and in the assay on MYB mRNA [5] was more than 10000 nM each time. The half-inhibitory concentration (IC50) with HTT mRNA [2], with MYB mRNA [3], with HTT mRNA [4] and in the assay on MYB mRNA [5] was more than 10000 nM throughout.
For the compound `Cn1cc2cc(NC(=O)c3c(F)cc(N4CCC(NC5CC5)CC4)c4cn(C)nc34)c(OC3CCOC3)cc2n1` (stereo not shown) [Compound 467, 4-[4-(cyclopropyl-amino)-1-piperidyl]-6-fluoro-2-methyl-N-(2-methyl-6-tetrahydrofuran-3-yloxy-indazol-5-yl)indazole-7-carboxamide], the GI50 in assay [1] lay within 100 to 1000 nM. The AC50 in the assay on HTT mRNA [2] is 100 to 1000 nM; with MYB mRNA [5], less than 100 nM. Besides, the IC50 in the assay on HTT mRNA [2] was 100 to 1000 nM; with MYB mRNA [3], less than 100 nM; in the assay on HTT mRNA [4], 100 to 1000 nM; with MYB mRNA [5], less than 100 nM.
On to `CCNC1CCN(c2cc(F)c(C(=O)Nc3cn4cc(C)nc(C)c4c3F)c3nn(C)cc23)CC1` [Compound 468, 4-[4-(ethylamino)-1-piperidyl]-6-fluoro-N-(8-fluoro-1,3-dimethyl-pyrrolo[1,2-a]pyrazin-7-yl)-2-methyl-indazole-7-carboxamide], for which the GI50 in assay [1] lay within 1000 to 10000 nM. In addition, the figures for the AC50 with HTT mRNA [2] and with MYB mRNA [5] were more than 10000 nM and less than 100 nM, respectively. The IC50 in the assay on HTT mRNA [2] was more than 10000 nM; in the assay on MYB mRNA [3] it was less than 100 nM; in the assay with HTT mRNA [4] it was more than 10000 nM; in the assay on MYB mRNA [5], less than 100 nM.
For `Cc1cc2cc(NC(=O)c3ccc(N4CCC(NC5CC5)CC4)c4cn(C)nc34)n(C)c2c(C)n1` [Compound 469, 4-[4-(cyclopropyl-amino)-1-piperidyl]-2-methyl-N-(1,5,7-trimethyl-pyrrolo[2,3-c]-pyridin-2-yl)indazole-7-carboxamide], the GI50 in assay [1] fell in the range of 100 to 1000 nM. The AC50 with HTT mRNA [2] and in the assay with MYB mRNA [5] was 1000 to 10000 nM in each case. Moreover, the IC50 with HTT mRNA [2], in the assay on MYB mRNA [3], in the assay on HTT mRNA [4] and in the assay on MYB mRNA [5] was 1000 to 10000 nM in each case.
Regarding `Cc1cn2cc(NC(=O)c3c(F)cc(N4CC5(CNC5)C4)c4cn(C)nc34)nc2c(C)n1` [Compound 470, 4-(2,6-diazaspiro[3.3]heptan-2-yl)-N-(6,8-dimethyl-imidazo-[1,2-a]-pyrazin-2-yl)-6-fluoro-2-methyl-indazole-7-carboxamide], the GI50 in assay [1] was in the range of 100 to 1000 nM. Also, the AC50 with HTT mRNA [2] and in the assay with MYB mRNA [5] was 100 to 1000 nM in each case. The IC50 in the assay with HTT mRNA [2], in the assay on MYB mRNA [3], with HTT mRNA [4] and in the assay on MYB mRNA [5] was 100 to 1000 nM in each case.
On to `CCNCC1CCN(c2cc(F)c(C(=O)Nc3cn4cc(C)nc(C)c4n3)c3nn(C)cc23)C1` (stereo not shown) [Compound 471, N-(6,8-dimethylimidazo-[1,2-a]-pyrazin-2-yl)-4-(3-[(ethylamino)methyl]-pyrrolidin-1-yl)-6-fluoro-2-methyl-indazole-7-carboxamide], for which the GI50 in assay [1] is 1000 to 10000 nM. The half-maximal activity concentration (AC50) in the assay on HTT mRNA [2] was more than 10000 nM; in the assay with MYB mRNA [5] it was 100 to 1000 nM. For the same compound, the IC50 in the assay on HTT mRNA [2] is more than 10000 nM; in the assay with MYB mRNA [3], 100 to 1000 nM; in the assay on HTT mRNA [4], more than 10000 nM; in the assay on MYB mRNA [5], 100 to 1000 nM.
With `COc1cc2nn(C)cc2cc1NC(=O)c1c(C)cc(N2CCC(NC3CC3)CC2)c2cn(C)nc12` [Compound 472, 4-[4-(cyclopropylamino)-1-piperidyl]-N-(6-methoxy-2-methyl-indazol-5-yl)-2,6-dimethylindazole-7-carboxamide], the GI50 in assay [1] fell in the range of 1000 to 10000 nM. For the same compound, the concentration at half-maximal activity (AC50) in the assay on HTT mRNA [2] is more than 10000 nM; in the assay on MYB mRNA [5] it was 1000 to 10000 nM. Further, the IC50 in the assay with HTT mRNA [2], in the assay on MYB mRNA [3], with HTT mRNA [4] and with MYB mRNA [5] was more than 10000 nM in each case.
Consider `Cc1cn2cc(NC(=O)c3c(C)cc(N4CCC(NC5CC5)CC4)c4cn(C)nc34)nc2c(C)n1` [Compound 473, 4-[4-(cyclopropylamino)-1-piperidyl]-N-(6,8-dimethylimidazo[1,2-a]pyrazin-2-yl)-2,6-dimethyl-indazole-7-carboxamide], for which the GI50 in assay [1] was more than 10000 nM. The AC50 in the assay on HTT mRNA [2] and in the assay with MYB mRNA [5] was more than 10000 nM in each case. For the same compound, the IC50 with HTT mRNA [2], with MYB mRNA [3], in the assay with HTT mRNA [4] and in the assay with MYB mRNA [5] was more than 10000 nM each time.

The values above are taken from US20260285853A1, “COMPOUNDS AND METHODS FOR MODULATING SPLICING” (REMIX THERAPEUTICS INC., priority 2023, published 2026).
